The target in one data set is T1, HER2 cytoplasmic domain (Homo sapiens, UniProt P04626).
T1 construct: polyhistidine (N)
The data set is described as follows: HER2 Kinase Screening Assay. Type of data set: biochemical. Conditions: > means no observed 50% inhibition at the indicated test concentration; ~ means approximately 50% inhibition at that concentration.

The test system of another data set is A375 malignant melanoma. In words: Inhibition of in vitro cell proliferation (A375).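 Further: cells plated for 24 h, given compound for 24 h, then labelled with 14C-thymidine for another 24 h, with DMSO-only wells as control and counts read by scintillation.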 Conditions: Homo sapiens, A-375, 14C-thymidine incorporation. Type of data set: cell-based, human.
Data set [1] in a line: In vivo tumor xenograft models overall (tolerability, body weight, plasma levels). Here is the method: Female Nu/Nu˜nuBR athymic nude mice (obtained from Charles River Laboratories), at the age of 5-6 weeks were feed water and an irradiated standard rodent diet ad libitum, and housed in specific pathogen-free conditions, according to the guidelines of the American Association for Accreditation of Lab Animal Care (AALAC).
Tumor measurements and body weights were recorded individually (2×/week) during the treatment period of the experiment. Tumors were measured using a digital caliper. Data was recorded/calculated using Study Director software (StudyLog Systems, Inc.) and graphs were created in GraphPad Prizm.
The volume of each tumor in an animal was calculated according to the formula: (D×d^2)/2, where the diameters were determined from two orthogonal measurements on each tumor. The mean tumor volume was determined by averaging all tumor volumes in each group. The mean body weight was determined by averaging all body weights in each group.

Data set [2] relates to spontaneous intestinal adenoma formation. In words: C57BL/6J-APC Min-mouse model of human adenomatous polyposis coli. Conditions: 100 mg/kg orally once-daily; vehicle 47±7, baseline 23±4. Type of data set: in vivo, C57BL/6J-Apc min mice. Here is the method: The ability of Compound 50 to inhibit angiogenesis and tumor growth was tested in a spontaneous tumor model. the pre-cancerous polyp formation in the mouse model of human intestinal tumorigenesis.
Transgenic C57BL/6J-Apc min mice heterozygous for a dominant nonsense Apc mutation are highly susceptible to spontaneous intestinal adenoma formation (homozygous mice are not viable). One hundred percent of these animals will develop polyps by 12 weeks of age. This model is widely used for studying prevention of intestinal adenoma formation and is well described in the literature (Yang K, Edelmann W, Fan K, et. al. A mouse model of human familial adenomatous polyposis. J Exp Zool. 1997 15; 277(3):245-54).
Female C57BL/6J-Apc^Min mice (Jackson Laboratory, MN), 5 weeks of age, were housed (up to 10 mice per group) for a minimum of one week. Animals were then sorted into treatment groups based on body weight such that the mean body weight for the animals in each group was approximately the same. Small cohorts of animals (n=6) were sacrificed at day 1, before treatment to get a baseline number of polyps (mean polyp number at beginning of study). […]
Animals in the treated group (n=10) were dosed daily with Compound 50 at 100 mg/kg orally q.d. for one week. […] The intestine of each mouse was excised, perfused, stained (0.01% Trypan Blue) and polyps were counted under 10× magnification.

Another data set has as its target T2, CDK1:Cyclin-B (Homo sapiens, UniProt P06493).
T2 construct: purchased New England Biolabs, Beverly, Mass; 6020; host or cells: insect cells
The data set is described as follows: CDK1 Screening Assay. Type of data set: biochemical.

Data set [3] relates to HeLa cervical adenocarcinoma. In words: Inhibition of in vitro cell proliferation (HeLa).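 Further: cells exposed to compound for 24 h, then labelled 24 h with methyl 14C-thymidine, with uptake into DNA counted by scintillation against DMSO-only control wells.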 Type of data set: cell-based, human. Conditions: Homo sapiens, 14C-thymidine incorporation.
The next data set has as its target C-Raf (Homo sapiens, UniProt P04049). The data set is described as follows: RAF Kinase Screening Assay (C-Raf). Conditions: Compound 50 tested at 30 μM.
The target of a further data set is B-Raf (Homo sapiens, UniProt P15056). The data set is described as follows: RAF Kinase Screening Assay (B-Raf). Conditions: Compound 50 tested at 30 μM.
Sequence of B-Raf (P15056 whole entry, species assumed): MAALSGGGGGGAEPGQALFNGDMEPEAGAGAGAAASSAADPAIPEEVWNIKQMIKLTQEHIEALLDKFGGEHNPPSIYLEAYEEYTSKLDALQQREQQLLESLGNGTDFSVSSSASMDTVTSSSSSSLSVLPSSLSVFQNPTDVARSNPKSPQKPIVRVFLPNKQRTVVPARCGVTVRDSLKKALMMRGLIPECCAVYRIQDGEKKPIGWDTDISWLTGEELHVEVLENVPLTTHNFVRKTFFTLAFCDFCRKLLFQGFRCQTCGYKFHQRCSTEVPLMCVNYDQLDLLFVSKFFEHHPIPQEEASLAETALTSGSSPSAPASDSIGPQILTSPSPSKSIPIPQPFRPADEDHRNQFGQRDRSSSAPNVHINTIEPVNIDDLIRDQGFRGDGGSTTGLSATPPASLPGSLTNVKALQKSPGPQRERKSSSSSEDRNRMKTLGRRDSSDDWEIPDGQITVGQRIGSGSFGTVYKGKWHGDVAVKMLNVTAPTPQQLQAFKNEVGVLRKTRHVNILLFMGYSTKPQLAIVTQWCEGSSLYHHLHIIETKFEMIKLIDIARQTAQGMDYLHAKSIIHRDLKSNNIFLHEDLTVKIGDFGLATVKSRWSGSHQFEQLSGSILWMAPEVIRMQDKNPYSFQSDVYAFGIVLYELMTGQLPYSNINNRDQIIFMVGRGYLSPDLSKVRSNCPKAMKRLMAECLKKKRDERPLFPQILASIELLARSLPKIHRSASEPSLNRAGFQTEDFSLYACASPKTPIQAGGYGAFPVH
Data set [4] concerns Human Umbilical Vein Endothelial Cells (HUVEC). In words: VEGF Mediated Cell Migration Assay. Type of data set: cell-based. Conditions: VEGF 10 ng/mL, VEGF control = 100%.
[5] abbreviates: 100 mg/kg daily, 24-28 days of treatment.
Setting [6] is: A431 and HCT116 models, continuous administration for 24 days.

Data on one compound can be found in US8013153B2, “Substituted pyrimidine kinase inhibitors” (Janssen Pharmaceutica, N.V., priority 2006, dated 2011).

“Also recorded” adds a separate entry of the source.

Sequence of C-Raf (P04049 whole entry, species assumed): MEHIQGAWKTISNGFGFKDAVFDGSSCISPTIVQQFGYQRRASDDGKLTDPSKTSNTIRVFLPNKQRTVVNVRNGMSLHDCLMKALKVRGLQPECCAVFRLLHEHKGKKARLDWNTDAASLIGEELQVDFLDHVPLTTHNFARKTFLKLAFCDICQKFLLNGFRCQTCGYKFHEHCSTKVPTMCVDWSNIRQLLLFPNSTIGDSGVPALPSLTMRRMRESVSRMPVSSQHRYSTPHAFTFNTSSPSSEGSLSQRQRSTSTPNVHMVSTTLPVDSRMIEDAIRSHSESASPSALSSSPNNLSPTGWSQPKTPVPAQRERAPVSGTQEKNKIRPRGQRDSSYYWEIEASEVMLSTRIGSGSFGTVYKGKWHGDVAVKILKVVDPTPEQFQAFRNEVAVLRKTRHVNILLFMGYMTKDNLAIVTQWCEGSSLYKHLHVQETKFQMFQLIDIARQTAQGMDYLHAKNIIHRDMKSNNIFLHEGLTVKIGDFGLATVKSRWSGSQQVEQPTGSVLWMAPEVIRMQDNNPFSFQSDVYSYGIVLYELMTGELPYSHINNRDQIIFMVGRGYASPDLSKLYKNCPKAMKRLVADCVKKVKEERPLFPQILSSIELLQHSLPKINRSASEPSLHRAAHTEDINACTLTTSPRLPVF
T1 sequence (P04626 676-1255 limits assumed): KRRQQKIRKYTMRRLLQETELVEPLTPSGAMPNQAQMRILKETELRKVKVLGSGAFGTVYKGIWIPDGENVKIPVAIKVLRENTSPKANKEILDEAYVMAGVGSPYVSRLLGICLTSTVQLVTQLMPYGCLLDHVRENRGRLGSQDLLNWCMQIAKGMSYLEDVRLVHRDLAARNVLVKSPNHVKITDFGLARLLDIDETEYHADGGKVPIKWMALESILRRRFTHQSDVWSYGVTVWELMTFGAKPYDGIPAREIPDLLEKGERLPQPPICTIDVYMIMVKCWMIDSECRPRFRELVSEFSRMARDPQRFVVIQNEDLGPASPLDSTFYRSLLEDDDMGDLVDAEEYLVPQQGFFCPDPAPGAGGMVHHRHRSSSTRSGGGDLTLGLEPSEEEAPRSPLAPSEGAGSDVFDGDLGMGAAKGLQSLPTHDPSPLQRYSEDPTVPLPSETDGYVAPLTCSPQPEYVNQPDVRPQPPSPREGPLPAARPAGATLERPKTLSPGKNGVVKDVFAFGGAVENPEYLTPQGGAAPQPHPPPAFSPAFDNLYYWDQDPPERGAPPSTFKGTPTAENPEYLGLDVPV
T2 sequence (P06493 whole entry): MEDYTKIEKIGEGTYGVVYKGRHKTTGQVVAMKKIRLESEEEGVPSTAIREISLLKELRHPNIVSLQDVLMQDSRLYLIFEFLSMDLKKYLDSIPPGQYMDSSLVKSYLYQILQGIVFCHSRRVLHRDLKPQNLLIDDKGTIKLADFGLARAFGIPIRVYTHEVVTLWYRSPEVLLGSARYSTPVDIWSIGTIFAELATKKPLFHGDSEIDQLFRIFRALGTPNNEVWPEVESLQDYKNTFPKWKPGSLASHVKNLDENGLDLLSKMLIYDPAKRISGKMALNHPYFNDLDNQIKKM
T2 sequence (P14635 whole entry partner): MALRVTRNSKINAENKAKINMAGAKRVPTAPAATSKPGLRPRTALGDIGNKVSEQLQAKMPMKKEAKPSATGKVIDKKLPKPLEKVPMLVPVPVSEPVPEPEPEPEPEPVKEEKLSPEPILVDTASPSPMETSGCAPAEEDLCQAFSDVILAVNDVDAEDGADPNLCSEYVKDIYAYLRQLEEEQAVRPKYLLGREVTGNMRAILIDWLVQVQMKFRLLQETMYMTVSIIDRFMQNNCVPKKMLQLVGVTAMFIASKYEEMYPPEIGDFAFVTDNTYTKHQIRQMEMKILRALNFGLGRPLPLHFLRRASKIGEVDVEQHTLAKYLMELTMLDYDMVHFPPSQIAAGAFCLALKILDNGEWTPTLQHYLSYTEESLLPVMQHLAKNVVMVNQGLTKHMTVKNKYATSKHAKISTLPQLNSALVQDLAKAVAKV

In the case of `CCNC(=O)Nc1ccc(Oc2ncnc(N)c2/C=N/OC)cc1Cl` [Cpd 50, 1-{4-[6-amino-5-(methoxyimino-methyl)-pyrimidin-4-yloxy]-2-chloro-phenyl}-3-ethyl-urea], the IC50 on HER2 cytoplasmic domain was over 100 µM; with A375 malignant melanoma, 3.91 µM; against CDK1:Cyclin-B, over 100 µM; in data set [3], 3.57 µM. Besides, the “inhibition in tumor xenograft models” value in [1] (10 mg/kg qd) was 28-48%. In [1] (100 mg/kg daily dosing schedule, oral, mice), this compound came in with a plasma levels of 20 µM. The body weight entry in data set [1] (setting [5]) is on record as “no reduction of body weight”. The tolerability entry in [1] (setting [5]) is given as “well-tolerated”; in [1] (setting [6]), “well tolerated”. In data set [1] (setting [5]), the treatment-related deaths result is reported as “no treatment-related deaths”. Also, in data set [1] (setting [6]), the body weights result is “comparable with control animals”. Also, the polyp counts in data set [2] turned out to be 27±7. For the same compound, the “activity against C-Raf” value at C-Raf is “no activity; also recorded: not active”. The “activity against B-Raf” value at B-Raf was “no activity; also recorded: not active”. The “% Stimulation of cell migration” value in data set [4] (50 nM) is 82%; in data set [4] (100 nM), 60%; in [4] (500 nM), 59%; in data set [4] (1 μM), 34.5%.
